Assays:
Experiment in all cases: Weeding effect in post-emergence stage (greenhouse pot test)
Format in all cases: in vivo
Capsella bursa-pastoris = conditions: 3 weeks after application, fresh weight control rate
Source text: (§1) The activity level criteria for plant damage (i.e., growth control rate) are as follows:
(§2) Level 5: growth control rate is above 85%; • Level 4: growth control rate is greater than or equal to 60% and less than 85%; • Level 3: growth control rate is greater than or equal to 40% and less than 60%; • Level 2: growth control rate is greater than or equal to 20% and less than 40%; • Level 1: growth control rate is greater than or equal to 5% and less than 20%; • Level 0: growth control rate is less than 5%.
(§3) The above growth control rates are fresh weight control rates.
(§4) Experiment on weeding effect in post-emergence stage:
(§5) Monocotyledonous and dicotyledonous weed seeds (Descurainia sophia, Capsella bursa-pastoris, Abutilon theophrasti, Galium aparine, Stellaria media, Lithospermum arvense, Rorippa indica, Alopecurus aequalis, Alopecurus japonicus, Eleusine indica, Beckmannia syzigachne, Sclerochloa dura, Phleum paniculatum, Veronica didyma Tenore, Bromus japonicus, Aegilops tauschii, Phalaris arundinacea, Amaranthus retrojlexus, Chenopodiaceae, Commelina communis, Sonchus arvensis, convolvulus arvensis, Cirsium setosum, Solanum nigrum, Acalypha australis, Digitaria sanguinalis, Echinochloa crusgalli, Setaria viridis, Setaria glauca, Leptochloa chinensis, Monochoria vaginalis, Sagittaria trifolia, Scirpus juncoides, Cyperus rotundus, Cyperus iria, Cyperus difformis, Fimbristylis, Portulaca oleracea, Xanthium sibiricum, Pharbitis nil, Conyza japonica, etc.) and major crop seeds (wheat, corn, rice, soybean, cotton, oilseed rape, millet, sorghum, potato, sesame, ricinus, etc.) were placed in plastic pots filled with soil, then covered with 0.5-2 cm of soil, allowed to grow in a good greenhouse environment. After 2 weeks of sowing, the test plants were treated in the 2-3 leaf stage. The tested compounds of the present invention were respectively dissolved in acetone, then added with Tween 80 and 1.5 liter/ha of emulsifiable concentrate of methyl oleate as synergist, diluted with a certain amount of water to obtain a solution with a certain concentration, and sprayed with a spray tower onto the plants. After the application, the plants were cultured for 3 weeks in the greenhouse, and then the experimental results of the weeding were counted. The doses of the used compounds were 500, 250, 125, 60, 15, 7.5 g a.i./ha, and the averages were obtained by repeating for three times.

Conyza japonica = conditions: post-emergence, 3 weeks after application, fresh weight control rate
Source text: as §1, §2, §3, §4, §5

Alopecurus japonicus = conditions: dose 15 g a.i./ha, 3 weeks after application, fresh weight control rate
Source text: as §1, §2, §3, §4, §5

SMILES	Activity level (growth control rate), Capsella bursa-pastoris (Capsella bursa-pastoris; dose 125 g a.i./ha)	Activity level (growth control rate), Capsella bursa-pastoris (Capsella bursa-pastoris; dose 15 g a.i./ha)	also measured
COC(=O)C12CCCC1C(c1cc(-n3c(=O)c4ccccc4n(C)c3=O)c(F)cc1Cl)=NO2 (stereo not drawn) [Compound 551]	5 (Level 5: growth control rate is above 85%)	–	–
COC(=O)C12CCCC1C(c1cc(-n3c(=O)n(C)c(=S)n(C)c3=S)c(F)cc1Cl)=NO2 (stereo not drawn) [Compound 395]	5 (Level 5: growth control rate is above 85%)	–	–
COC(=O)C12CSCC1C(c1cc(-n3c(=O)cc(C(F)(F)F)n(C)c3=O)c(F)cc1Cl)=NO2 (stereo not drawn) [Compound 374]	5 (Level 5: growth control rate is above 85%)	–	Activity level (growth control rate), Conyza japonica (Conyza japonica; dose 125 g a.i./ha): 5 (Level 5: growth control rate is above 85%)
COC(=O)C12CCCC1C(c1cc(N3C(=O)C4CCCCC4C3=O)c(F)cc1Cl)=NO2 (stereo not drawn) [Compound 545]	5 (Level 5: growth control rate is above 85%)	–	–
COC(=O)C12CCCC1C(c1cc(NC(=O)C3=C(C(=O)O)CCCC3)c(F)cc1Cl)=NO2 (stereo not drawn) [Compound 597]	–	5 (Level 5: growth control rate is above 85%)	Activity level (growth control rate), Conyza japonica (Conyza japonica; dose 15 g a.i./ha): 4 (Level 4: growth control rate is greater than or equal to 60% and less than 85%)
COC(=O)C12CCCC1C(c1cc(-n3c(=O)cc(C(F)(F)F)n(C)c3=O)c(F)cc1C#N)=NO2 (stereo not drawn) [Compound 212]	–	5 (Level 5: growth control rate is above 85%)	Activity level (growth control rate), Conyza japonica (Conyza japonica; dose 15 g a.i./ha): 5 (Level 5: growth control rate is above 85%)
COC(=O)C12CCCCCC1C(c1cc(-n3c(=O)cc(C(F)(F)F)n(C)c3=O)c(F)cc1Cl)=NO2 (stereo not drawn) [Compound 435]	–	5 (Level 5: growth control rate is above 85%)	–
COC(=O)C12CCCC1C(c1cc(N3C(=O)CC(=C(C)C)C3=O)c(F)cc1Cl)=NO2 (stereo not drawn) [Compound 544]	5 (Level 5: growth control rate is above 85%)	–	–
CCCN1C(=O)C(=O)N(c2cc(C3=NOC4(C(=O)OC)CCCC34)c(Cl)cc2F)C1=S (stereo not drawn) [Compound 552]	5 (Level 5: growth control rate is above 85%)	–	–
COC(=O)C12CCCC1C(c1cc(-n3c(=O)cc(C(F)(F)F)n(C)c3=O)c(Cl)cc1Cl)=NO2 (stereo not drawn) [Compound 440]	–	5 (Level 5: growth control rate is above 85%)	–
CCOC(=O)C12ON=C(c3cc(-n4c(=O)cc(C(F)(F)F)n(C)c4=O)c(F)cc3Cl)C1CCC2=NO (stereo not drawn) [Compound 491]	–	5 (Level 5: growth control rate is above 85%)	–
COC(=O)C12CCCC1C(c1cc(-c3cc(C(F)(F)F)n(C)c3)c(F)cc1Cl)=NO2 (stereo not drawn) [Compound 587]	5 (Level 5: growth control rate is above 85%)	–	–
Cn1c(C(F)(F)F)cc(=O)n(-c2cc(C3=NOC4(C(=O)OCc5ccccc5F)CCCC34)c(Cl)cc2F)c1=O (stereo not drawn) [Compound 264]	–	5 (Level 5: growth control rate is above 85%)	Activity level (growth control rate), Conyza japonica (Conyza japonica; dose 15 g a.i./ha): 4 (Level 4: growth control rate is greater than or equal to 60% and less than 85%)
COC(=O)C12CCCC1C(c1cc(N3C(=O)CC(C)CC3=O)c(F)cc1Cl)=NO2 (stereo not drawn) [Compound 547]	5 (Level 5: growth control rate is above 85%)	–	–
COC(=O)C12CCCC1C(c1cc(-c3nn(C)c(C(F)(F)F)cc3=O)c(F)cc1Cl)=NO2 (stereo not drawn) [Compound 579]	–	5 (Level 5: growth control rate is above 85%)	Activity level (growth control rate), Alopecurus japonicus (Alopecurus japonicus): 4 (Level 4: growth control rate is greater than or equal to 60% and less than 85%)
COC(=O)C12CC(C)CC1C(c1cc(-n3c(=O)cc(C(F)(F)F)n(C)c3=O)c(F)cc1Cl)=NO2 (stereo not drawn) [Compound 456]	–	5 (Level 5: growth control rate is above 85%)	Activity level (growth control rate), Conyza japonica (Conyza japonica; dose 15 g a.i./ha): 4 (Level 4: growth control rate is greater than or equal to 60% and less than 85%)

SMILES	Activity level (growth control rate), Capsella bursa-pastoris (Capsella bursa-pastoris; dose 125 g a.i./ha)	Activity level (growth control rate), Capsella bursa-pastoris (Capsella bursa-pastoris; dose 15 g a.i./ha)	also measured
COC(=O)C12CCCC1C(c1cc(-c3ncc(S(C)(=O)=O)cc3Cl)c(F)cc1Cl)=NO2 (stereo not drawn) [Compound 584]	5 (Level 5: growth control rate is above 85%)	–	Activity level (growth control rate), Conyza japonica (Conyza japonica; dose 125 g a.i./ha): 5 (Level 5: growth control rate is above 85%)
COC(=O)C12CCCC1C(c1cc(-c3c(Br)c(C(F)(F)F)nn3C)c(F)cc1Cl)=NO2 (stereo not drawn) [Compound 590]	5 (Level 5: growth control rate is above 85%)	–	–
COC(=O)C12CCCC1C(c1cc(-c3nnc(C(F)(F)F)cc3O)c(F)cc1Cl)=NO2 (stereo not drawn) [Compound 577]	5 (Level 5: growth control rate is above 85%)	–	Activity level (growth control rate), Conyza japonica (Conyza japonica; dose 125 g a.i./ha): 5 (Level 5: growth control rate is above 85%)
CCSC(=O)C12CCCC1C(c1cc(-n3c(=O)cc(C(F)(F)F)n(C)c3=O)c(F)cc1Cl)=NO2 (stereo not drawn) [Compound 334]	–	5 (Level 5: growth control rate is above 85%)	Activity level (growth control rate), Conyza japonica (Conyza japonica; dose 15 g a.i./ha): 4 (Level 4: growth control rate is greater than or equal to 60% and less than 85%)
COC(=O)C12CCCC1C(c1cc(/N=c3\scc(C(F)(F)F)n3C)c(F)cc1Cl)=NO2 (stereo not drawn) [Compound 574]	–	5 (Level 5: growth control rate is above 85%)	Activity level (growth control rate), Conyza japonica (Conyza japonica; dose 15 g a.i./ha): 5 (Level 5: growth control rate is above 85%)
CCOC(=O)C12ON=C(c3cc(-n4c(=O)cc(C(F)(F)F)n(C)c4=O)c(F)cc3Cl)C1CCC2F (stereo not drawn) [Compound 472]	–	5 (Level 5: growth control rate is above 85%)	Activity level (growth control rate), Conyza japonica (Conyza japonica; dose 15 g a.i./ha): 4 (Level 4: growth control rate is greater than or equal to 60% and less than 85%)
COC(=O)C12CCCC1C(c1cc(-c3c(Cl)c(C(F)(F)F)n(C)c3Cl)c(F)cc1Cl)=NO2 (stereo not drawn) [Compound 588]	5 (Level 5: growth control rate is above 85%)	–	–
O=C1C2CC=CCC2C(=O)N1c1cc(C2=NOC3(C(=O)O)CCCC23)c(Cl)cc1F (stereo not drawn) [Compound 546]	5 (Level 5: growth control rate is above 85%)	–	–
COC(=O)C12CCCC1C(c1cc(-n3nc4n(c3=O)CCCC4)c(F)cc1Cl)=NO2 (stereo not drawn) [Compound 561]	5 (Level 5: growth control rate is above 85%)	–	–
COC(=O)C12CCCC1C(c1cc(-c3cc(C(F)(F)F)nn3C)c(F)cc1Cl)=NO2 (stereo not drawn) [Compound 589]	5 (Level 5: growth control rate is above 85%)	–	–
COC(=O)C12CCCC1C(c1cc(-n3c(=O)cc(C(F)(F)F)n(C)c3=S)c(F)cc1Cl)=NO2 (stereo not drawn) [Compound 497]	–	5 (Level 5: growth control rate is above 85%)	–
COC(=O)C12CCCC1(O)C(c1cc(-n3c(=O)cc(C(F)(F)F)n(C)c3=O)c(F)cc1Cl)=NO2 (stereo not drawn) [Compound 351]	–	–	Activity level (growth control rate), Conyza japonica (Conyza japonica; dose 15 g a.i./ha): 4 (Level 4: growth control rate is greater than or equal to 60% and less than 85%)
COC(=O)C12CCCC1C(c1cc(-n3c(=O)cc(C(F)(F)F)n(C)c3=O)c(F)cc1C(F)(F)F)=NO2 (stereo not drawn) [Compound 211]	–	5 (Level 5: growth control rate is above 85%)	Activity level (growth control rate), Conyza japonica (Conyza japonica; dose 15 g a.i./ha): 5 (Level 5: growth control rate is above 85%)
CCCNC(=O)C12CCCC1C(c1cc(N3C(=O)C(=O)N(CCC)C3=S)c(F)cc1Cl)=NO2 (stereo not drawn) [Compound 553]	–	5 (Level 5: growth control rate is above 85%)	–
COC(=O)C12CCCCC1C(c1cc(-n3c(=O)cc(C(F)(F)F)n(C)c3=O)c(F)cc1Cl)=NO2 (stereo not drawn) [Compound 370]	5 (Level 5: growth control rate is above 85%)	–	–
COC(=O)C12CCCC1C(c1cc(-c3ncc(C(F)(F)F)c(C)c3Cl)c(F)cc1Cl)=NO2 (stereo not drawn) [Compound 586]	5 (Level 5: growth control rate is above 85%)	–	Activity level (growth control rate), Conyza japonica (Conyza japonica; dose 125 g a.i./ha): 5 (Level 5: growth control rate is above 85%)
